The NIST ThermoML archive (doi:10.1021/je060486k)

Test: cn = amount concentration of the nth substance listed, in mol/dm3
Conditions: 298.15 K; for surface tension liquid-gas: Wilhelmy plate method; for kinematic viscosity / mass density / speed of sound: 101 kPa, Liquid; for kinematic viscosity: Capillary tube (Ostwald / Ubbelohde) method

O [water] + CCCCCCCCCC[N+](C)(C)C.[Br-]
c2 = 0
Conditions | kinematic viscosity [m2/s] | surface tension liquid-gas [mN/m]
– | 8.956e-07 | 72.5

CCCCCCCCCC[N+](C)(C)C.[Br-] [N,N,N-trimethyl-1-decanaminium bromide] + O
Conditions | kinematic viscosity [m2/s] | mass density [kg/m3] | speed of sound [m/s] | surface tension liquid-gas [mN/m]
c1 = 0.001 | 8.975e-07 | 997.11 | 1497.3 | 65.4
c1 = 0.005 | 8.99e-07 | 997.25 | 1497.8 | 60.1
c1 = 0.01 | 9.048e-07 | 997.37 | 1498.7 | 57.6
c1 = 0.02 | 9.14e-07 | 997.58 | 1500.8 | 49.7
c1 = 0.03 | 9.224e-07 | 997.85 | 1502.6 | 43.4
c1 = 0.04 | 9.35e-07 | 998.06 | 1504.3 | 38
c1 = 0.05 | 9.449e-07 | 998.33 | 1506.3 | 36.9
c1 = 0.06 | 9.56e-07 | 998.52 | 1508 | 36.1
c1 = 0.07 | 9.642e-07 | 998.79 | 1509.2 | 35.5
c1 = 0.08 | 9.78e-07 | 999 | 1509.7 | 35.2
c1 = 0.1 | 1.002e-06 | 999.37 | 1510.1 | 35.2
c1 = 0.12 | 1.024e-06 | 999.77 | 1510.6 | 35
c1 = 0.15 | 1.062e-06 | 1000.4 | 1511.1 | 35.2
c1 = 0.2 | 1.117e-06 | 1001.22 | 1511.7 | 35
c1 = 0.25 | 1.181e-06 | 1002.09 | 1512.4 | 35.1

CCCCCC[N+](C)(C)C.[Br-] [hexyltrimethylammonium bromide] + O
Conditions | kinematic viscosity [m2/s] | mass density [kg/m3] | speed of sound [m/s] | surface tension liquid-gas [mN/m]
c1 = 0.1 | 9.149e-07 | 1000.32 | 1510.6 | 51.6
c1 = 0.2 | 9.406e-07 | 1003.85 | 1524.9 | 44.3
c1 = 0.3 | 9.727e-07 | 1006.97 | 1537.3 | 41.1
c1 = 0.4 | 1.011e-06 | 1010.42 | 1550.5 | 38.3
c1 = 0.45 | 1.033e-06 | 1012.06 | 1557.7 | 36.8
c1 = 0.5 | 1.056e-06 | 1013.74 | 1562.9 | 35.8
c1 = 0.6 | 1.108e-06 | 1017.19 | 1575.3 | 34
c1 = 0.7 | 1.166e-06 | 1021.02 | 1588.6 | 32.5
c1 = 0.8 | 1.23e-06 | 1024.21 | 1599.1 | 31.2
c1 = 0.9 | 1.301e-06 | 1027.68 | 1610 | 30.5
c1 = 1 | 1.379e-06 | 1031.33 | 1620.6 | 29.9
c1 = 1.1 | 1.463e-06 | 1034.12 | 1628.1 | 29.5
c1 = 1.3 | 1.65e-06 | 1041.07 | 1644.8 | 29.3
c1 = 1.5 | 1.863e-06 | 1047.62 | 1652.1 | 29.1
c1 = 1.7 | 2.101e-06 | 1054.38 | 1660 | 29.1
c1 = 2 | 2.508e-06 | 1064.23 | 1670.3 | 28.9

O [water] + CCCCCCCC[N+](C)(C)C.[Br-]
c2 = 0
Conditions | kinematic viscosity [m2/s] | surface tension liquid-gas [mN/m]
– | 8.957e-07 | 72.5

O [water] + CCCCCC[N+](C)(C)C.[Br-]
c2 = 0
Conditions | kinematic viscosity [m2/s] | surface tension liquid-gas [mN/m]
– | 8.957e-07 | 72.5

CCCCCCCC[N+](C)(C)C.[Br-] [octyl trimethyl ammonium bromide] + O
Conditions | kinematic viscosity [m2/s] | mass density [kg/m3] | speed of sound [m/s] | surface tension liquid-gas [mN/m]
c1 = 0.02 | 8.99e-07 | 997.62 | 1500.1 | 69.4
c1 = 0.04 | 9.033e-07 | 998.2 | 1503.1 | 63.1
c1 = 0.06 | 9.083e-07 | 998.73 | 1506.3 | 59.5
c1 = 0.08 | 9.14e-07 | 999.23 | 1510 | 54.6
c1 = 0.1 | 9.2e-07 | 999.68 | 1513.1 | 51.1
c1 = 0.12 | 9.276e-07 | 1000.25 | 1516.4 | 48.9
c1 = 0.14 | 9.355e-07 | 1000.79 | 1520.3 | 46.5
c1 = 0.16 | 9.441e-07 | 1001.62 | 1522.7 | 44
c1 = 0.18 | 9.534e-07 | 1001.9 | 1525.8 | 41.7
c1 = 0.2 | 9.636e-07 | 1002.54 | 1529.6 | 39.8
c1 = 0.3 | 1.025e-06 | 1005 | 1540 | 36.4
c1 = 0.4 | 1.103e-06 | 1008.09 | 1546.5 | 35.8
c1 = 0.5 | 1.2e-06 | 1010.5 | 1549.2 | 35.5
c1 = 0.6 | 1.315e-06 | 1013.19 | 1552.2 | 35.4
c1 = 0.8 | 1.598e-06 | 1018.07 | 1557.4 | 35.2
c1 = 1 | 1.953e-06 | 1022.98 | 1562.7 | 35.1
